The source of these data is a melting point compilation (Tetko et al.; mined from patent text by program, amines drawn as free bases though some values may be those of a salt).

Take `CC(C)c1nc2c(nc1C(C)C)-c1c(c(-c3ccc(C(=O)O)cc3)cn1Cc1cccnc1)CC2`: the melting point (in general, the temperature, or range, at which the solid turns liquid) fell in the range of 100 to 102 °C.

`O=[N+]([O-])c1ccc2c(c1)S(=O)(=O)c1ccccc1-2` came in with a melting point of 259 °C.

For `CC1(C)CCC(C)(C)c2cc(SCc3ccc(C(=O)O)cc3)ccc21`, the melting point lay in the range of 169 to 170 °C.

The compound `Cc1oc(-c2ccccc2)nc1CCOc1ccc(CC2SC(=O)NC2=O)c2ccccc12` (stereo unspecified) came in with a melting point of 188 to 191 °C.

Turning to `CNC(=O)CN1CCC2=C(C1)c1c(O)cc(C(C)C)cc1OC2(C)C`, the melting point lay within 178 to 190 °C.

On to `CC(c1ccccc1)N1c2ccccc2Oc2ccccc21` (stereo unspecified), for which the melting point came out at 100 °C.

With `COc1c(Cl)ccc(-c2nc(C(=O)Cl)cc(Cl)c2Cl)c1F`, the melting point is 134 to 136 °C.

In turn, `CCOC(=O)COc1ccc2cnn(C[C@H](C)NC(=O)OCc3ccccc3)c2c1Br` had a melting point of 89 to 90 °C.

For `O=[N+]([O-])c1ccc(S(=O)(=O)N2CCN(c3ccc(F)cc3)CC2)cc1`, the melting point lay within 189 to 191 °C.

Compound `COc1cc2c(cc1C)CCN(C)C2C1(c2ccsc2)CC1` (stereo unspecified) came in with a melting point of 103 to 105 °C.

For `COc1ccc(-c2nc(=O)c3ccccc3o2)cc1`, the melting point fell in the range of 175 to 178 °C.

`CCCCNC(=O)Nc1ccc(OCC)cc1C(=O)NCC1CCN(C(c2ccccc2)c2ccccc2)CC1` gave a melting point of 191 to 193 °C.

`CC1(C(O)=Nc2cc(Cl)cc(Cl)c2)CC(F)C1(C)C(=O)O` (stereo unspecified) gave a melting point of 122 to 123 °C.

Consider `Cn1nnnc1SCc1ccccn1`, for which the melting point is 78 to 81 °C.

Regarding `C[C@@]1(O)CCCC[C@H]1n1nc(-c2c(-c3ccccc3)nn3ccccc23)ccc1=O` (relative stereo), the melting point is 197 to 198 °C.

As to `O=C1NCCNN1c1ccc(Cc2ccc(Cl)cc2)c(Cl)c1`, the melting point lay within 157 to 158 °C.

In the case of `Cc1c(N2CC[C@@H](O)[C@H](C)C2)c(F)cc2c(=O)c(C(=O)O)cn(C3CC3)c12` (relative stereo), the melting point fell in the range of 206 to 210 °C.

With `CCCCCCCCCCCCn1nnnc1CCC(=O)OC`, the melting point lay within 43 to 45 °C.

`CCCc1c(Br)sc2[nH]c(=O)c(=O)[nH]c12`: the melting point lay in the range of 269 to 271 °C.

Consider `COc1ccc2[nH]c(C)c(Cc3cc(=O)n(C4CCCCC4)[nH]3)c2c1`, for which the melting point fell in the range of 99 to 101 °C.

In turn, `Cn1nc(-c2ncc(Cl)cc2F)c([N+](=O)[O-])c1OC(F)F` returned a melting point of 108 to 109 °C.

Turning to `C1=C(c2c[nH]c3ccccc23)CCN(CC2COc3ccc4c(c3O2)CCO4)C1` (stereo unspecified), the melting point was in the range of 207 to 209 °C.

The compound `CC(C)(O)C#Cc1nccs1` displayed a melting point of 69 to 70 °C.

The compound `CCCCOC(=O)c1cc2cccc(OC)c2[nH]1` showed a melting point of 66 to 69 °C.

As for `CC(Oc1ccccc1)C(=O)NCCCCn1cnc2c(N)nc3ccccc3c21` (stereo unspecified), the melting point fell in the range of 85 to 87.5 °C.

In turn, `CC(C)C(NC(=O)OCc1csc(N2CCCC2)n1)C(=O)NN(C(=O)OCc1cncs1)C(Cc1ccccc1)CC(O)CCc1ccccc1` (stereo unspecified) yielded a melting point of 165 to 167 °C.

`O=C1c2c(-c3ccccc3F)noc2CCC1CCCN1CCN(C(c2ccc(F)cc2)c2ccc(F)cc2)CC1` (stereo unspecified) returned a melting point of 95 to 97 °C.

As for `CCn1c2ccccc2c(=NN=C2NCCS2)c2ccccc21`, the melting point was in the range of 187 to 188 °C.

Compound `O=S(=O)(c1ccccc1)c1c[nH]c2cccc(CCO)c12` showed a melting point of 55 to 60 °C.

On to `O=C(CN1C(=O)c2ccccc2C1=O)Nc1cccc(C(F)(F)F)c1`, for which the melting point came to 235 °C.

Consider `N#CC(=C(Cl)c1ccc(Br)cc1)c1ccccc1`, for which the melting point was in the range of 128 to 130 °C.

As to `Fc1cccc(F)c1C1=NC(c2ccc(I)cc2)CO1` (stereo unspecified), the melting point lay within 105 to 106 °C.

As to `C=CC1(C)OC(=O)c2ccc(Oc3ccc(C(F)(F)F)cc3Cl)cc21` (stereo unspecified), the melting point was in the range of 71 to 73 °C.

`CCCCCCC(C(=O)N1CCC[C@H]1C(=O)O)n1cnc2cc(-c3ccccc3-c3nn[nH]n3)ccc21` (stereo partly specified) gave a melting point of 145 to 150 °C.

In the case of `Cc1ccc(-n2cccc2-c2ccc(S(C)(=O)=O)cc2)cc1C`, the melting point was in the range of 134 to 137 °C.

Consider `CC(=NOCCOc1ccc(CC2SC(=O)NC2=O)cc1)c1cccc(Cl)c1` (stereo unspecified), for which the melting point lay in the range of 82 to 84 °C.

As to `CCC1CCN(C(=O)C(Cc2c[nH]cn2)NC(=O)C2CCC(=O)N2)C1C(N)=O` (racemic), the melting point is 156 to 160 °C.

In the case of `CC(C)[C@H](CO)Cc1ccc(C(C)(C)C)cc1`, the melting point fell in the range of 49 to 51 °C.

`N#Cc1ccc(CN2CCC(=O)C(C(c3ccc(F)cc3)c3ccc(F)cc3)C2)cc1` (stereo unspecified) showed a melting point of 118 to 120 °C.

As to `ON=Cc1ccc(OCc2coc(-c3ccccc3)n2)cc1`, the melting point lay in the range of 184 to 186 °C.

`O=C(NCCO)c1cccc(-c2cccc3nn(Cc4cc(F)cc(Cl)c4)cc23)c1` returned a melting point of 188 to 189 °C.

In turn, `N#CC1c2ccccc2Oc2cc(O)cc(O)c21` (stereo unspecified) had a melting point of 211 to 215 °C.

With `CC(=Cc1ccc(C(F)(F)F)cc1)C1OCC(S(=O)Cc2ccc(Cl)cc2)CO1` (stereo unspecified), the melting point lay within 192 to 194 °C.

In turn, `CC(C)(O)CNC(=O)c1ccc(-c2ccc(C(CC3CCOCC3)c3ccc(S(=O)(=O)C4CC4)cc3)[nH]2)nc1` (stereo unspecified) came in with a melting point of 126 to 128 °C.

Regarding `COc1ccc(NC(=O)N2CCC(C)C2=O)cc1` (stereo unspecified), the melting point fell in the range of 71 to 72 °C.

On to `CC(C)Oc1ccccc1C1(CC(=O)O)C(=O)Nc2ccc(Cl)cc21` (stereo unspecified), for which the melting point fell in the range of 146 to 148 °C.

`Fc1ccc(-c2ccc(-c3cn([C@H]4CN5CCC4CC5)nn3)cc2)cn1` registered a melting point of 181 °C.

`Cc1ccc(Nc2c([N+](=O)[O-])cc(C(=O)O)cc2S(N)(=O)=O)c(C)c1`: the melting point is 224 to 226 °C.

On to `CCCCNc1nc2ccccc2c2c1ncn2C`, for which the melting point was in the range of 98 to 100 °C.

Consider `NC(=O)Cn1c(-c2ccc(Br)cc2)nc2cccnc21`, for which the melting point was over 250 °C.

Take `O=C(O)c1snc(-c2ccc(Cl)c(Cl)c2)c1C(=O)O`: the melting point stood at 188 °C.

For `COC1CCC(C2=C(Cl)C(=O)c3ccccc3C2=O)CC1` (stereo unspecified), the melting point was 110 to 113 °C.

`C=C(C)C(=O)OCc1ccc(OC2CCCCO2)cc1` (stereo unspecified) displayed a melting point of 36 to 36.7 °C.

As for `CC(C)N(C(C)C)P(N)(N)=S`, the melting point was 93 to 98 °C.

With `O=S(=O)(c1ccc2c(Cl)cccc2c1)N1CC2CC1CO2` (stereo unspecified), the melting point was in the range of 132 to 133 °C.

With `Nc1nc(-c2ccc(CCN3CCN(c4cccc5ccccc45)CC3)cc2)cs1`, the melting point was 274 to 277 °C.

`Fc1cc(F)c(-c2c(Cl)nc(-n3ccnc3)nc2NCC(F)(F)F)c(F)c1`: the melting point lay within 168 to 170 °C.

Compound `O=S1c2ccccc2-c2[nH]nc(-c3ccccc3)c21` (stereo unspecified) came in with a melting point of 222 to 224 °C.

On to `CCOC(=O)c1c(COc2nccn2C)nc2cc(OC)c(OC)cc2c1-c1ccc(OC)c(OC)c1`, for which the melting point fell in the range of 151 to 152 °C.

For `CCCCCCCCCCCC(=O)Nc1cc([N+](=O)[O-])ccc1F`, the melting point was 75 to 77 °C.

The compound `CC(C)(C)NS(=O)(=O)c1ccc(Cl)cc1C=C1CCOC1=O` returned a melting point of 198 to 201 °C.

Regarding `CCOC(=O)c1cn(C)c2cnc3cc(F)c(N4CC5(C)CC4CC(C)(C)C5)cc3c2c1=O` (stereo unspecified), the melting point was determined as 187 °C.

Turning to `CCN(CC)CCNC(=O)c1ccc([N+](=O)[O-])cc1OC`, the melting point was 59.3 °C.

`CCCC(=O)NC(=O)C1c2ccccc2Oc2ccccc21`: the melting point was found to be 222 °C.

For the compound `COC=Nc1c(S(=O)(=O)C(F)(F)F)c(-c2ncon2)nn1-c1c(Cl)cc(C(F)(F)F)cc1Cl`, the melting point is 158 °C.

`O=C(O)C(=O)C12CC3CC(CC(O)(C3)C1)C2` came in with a melting point of 164 to 166 °C.

`CS(=O)(=O)c1cnc(Cl)c(I)c1` gave a melting point of 178 to 180 °C.

Compound `Cc1ccccc1N(C)c1nc(=O)c2cccnc2s1` showed a melting point of 208 to 209 °C.

For `COC(=O)C(=Cc1cc(OC)cc(OC)c1)c1ccc(Oc2ccc(CO)cc2)cc1`, the melting point is 93 to 95 °C.

Compound `CCCOc1ccccc1-c1ccc([N+](=O)[O-])c(=O)[nH]1` displayed a melting point of 198 to 200 °C.

With `CCN(CC)C(=O)Nc1ccc(S(=O)(=O)N2C(=O)C(CCCN(C)C)(c3ccccc3F)c3cc(C)c(OC)cc32)cc1F` (stereo unspecified), the melting point was determined as 82 °C.

With `Nc1nc(Cl)cc(Oc2ccc3[nH]ccc3c2)n1`, the melting point is 192 °C.

In turn, `COc1cc2scc(C(=O)Nc3cccnc3)c2cc1Br` showed a melting point of 160 to 161 °C.

`Fc1ccc(N2CCN(CCCOc3ccccc3-c3nnco3)CC2)cc1` showed a melting point of 102 to 103 °C.

Regarding `CCc1nc(OC)c(NC(=O)N2CCN(c3cc(Cl)cc(Cl)c3)CC2)cc1C(=O)Nc1cc(CO)cc(Nc2c3ccccc3nc3ccccc23)c1`, the melting point fell in the range of 210 to 212 °C.

On to `COc1cc2c(cc1OC)C(O)C(N1CCC(N3c4ccccc4NC3C)CC1)C2` (stereo unspecified), for which the melting point lay in the range of 255 to 256 °C.

`CC(C)(C)c1cc(Nc2cccc(OCC(=O)O)c2)cc(C(C)(C)C)c1O` had a melting point of 127 to 128 °C.

For the compound `Nc1ccc(CCCc2ccc(Nc3ccccc3C(=O)O)cc2)cc1`, the melting point is 110 to 112 °C.

Turning to `Cc1cc(C2N(c3ccccc3)CCN2c2ccccc2)cc(Cl)c1O`, the melting point fell in the range of 146 to 147 °C.

Take `CC(C)c1ccc(-n2c(CC(=O)O)c(C(=O)O)c3cc(Oc4ccc(C(F)(F)F)cc4)ccc32)cc1`: the melting point lay within 250 to 252 °C.

As to `O=C(c1ccco1)c1cnn2c(-c3cccc(N4CCCC4=O)c3)ccnc12`, the melting point was 210 to 211 °C.

In turn, `CC1(C)CN=C(c2cc3cc(F)cc(NS(=O)(=O)c4cccs4)c3[nH]2)S1` came in with a melting point of 175 to 176 °C.

`CCSc1ccc(/C=C(\NC(=O)c2ccc(OCC(C)C)cc2)C(=O)NCCO)cc1` gave a melting point of 153 to 155 °C.

The compound `NC(=O)CNC(=O)c1cncc(-c2cccc3cc(Cc4cccc(C(F)(F)F)c4)sc23)c1` yielded a melting point of 122 to 123 °C.

Take `CCCCOCC(O)COc1ccc(-c2nc(OC)nc(-c3ccc(OCC(O)COCCCC)cc3O)n2)c(O)c1` (stereo unspecified): the melting point was 98 to 99 °C.

For the compound `OCCn1cc2c(n1)CN=C(c1ccccc1)c1cc(Cl)ccc1-2`, the melting point fell in the range of 173 to 175 °C.
